Assays:
[1] = Absorption wavelength of the synthesized dye (HP 8452 diode array spectrophotometer); assay type: physicochemical
Protocol: (§1) First, the experimental apparatuses, analytical instruments and reagents used in the examples and experiments are described. Bruker's Avance 300 and 400 were used for FT-NMR spectroscopy, and the Voyager MALDI-TOF DE mass spectrometer was used for MALDI-TOF M/S. Absorption wavelength of the synthesized dye and the absorbance at maximum absorption wavelength were measured using Hewlett-Packard's HP 8452 diode array spectrophotometer. Emission wavelength and light emission at maximum emission wavelength were measured using Perkin Elmer's LS-55.

[2] = Emission wavelength at maximum emission (Perkin Elmer LS-55); assay type: physicochemical
Protocol: as §1

[3] = tested on: marker proteins (Amersham LMW calibration kit: phosphorylase b, albumin, ovalbumin, carbonic anhydrase, trypsin inhibitor, α-lactalbumin); assay: Staining of proteins, separated by gel electrophoresis, fluorescence image; details: 0.1M phosphate buffer pH 9.0, room temperature, 1 hour; electrophoresis 125 V, 2 hours
Protocol: Gel electrophoresis was carried out using Bio-Rad's PowerPac Basic Power Supply (Catalog No. 164-5050) coupled to the Amersham Biosciences's SE260 mini-vertical gel electrophoresis unit. Lonza's PAGEr Gold Precast Gels (polyacrylamide gels for protein electrophoresis, 10-20% Tris-glycine gels, Catalog No. 59506) were used as gels. Running and loading buffers for SDS-PAGE were prepared as follows prior to use.
Size markers commercially available from GE Healthcare and Takara were used as proteins. Perkin Elmer's Geliance 600 was used for observation of labeled biomolecules and measurement of fluorescence intensity. Geliance UV Epi (Catalog No. L7110026) and Geliance Blue Epi (Catalog No. L7110027) were used as light sources. Measurement was carried out using UV filter, Geliance short-pass filter (500-600 nm), Geliance long-pass filter (580-660 nm) and Geliance blue light filter (550-600 nm) while changing the filters in accordance with fluorescence wavelengths.
Each vial of one pack of Amersham™ LMW calibration kit (17-0446-01) for SDS electrophoresis commercially available from GE Healthcare contains 576 μg of six marker proteins, which are phosphorylase b (97 kD, 67 μg), albumin (66 kD, 83 μg), ovalbumin (45 kD, 147 μg), carbonic anhydrase (30 kD, 83 μg), trypsin inhibitor (20.1 kD, 80 μg) and α-lactalbumin (14.4 kD, 116 μg). […]

CC[N+]1=C(/C=C/C=C2/N(CCCCCC(=O)O)c3ccc4c(S(=O)(=O)O)cc(S(=O)(=O)O)cc4c3C2(C)C)C(C)(C)c2c1ccc1c(S(=O)(=O)[O-])cc(S(=O)(=O)O)cc21
λabs (water) [1]: 579 nm | λfl (water) [2]: 594 nm

C=CS(=O)(=O)CCNC(=O)CCCCCN1/C(=C/C=C/C=C/C2=[N+](CC)c3ccc4c(S(=O)(=O)[O-])cc(S(=O)(=O)O)cc4c3C2(C)C)C(C)(C)c2c1ccc1c(S(=O)(=O)O)cc(S(=O)(=O)O)cc21 [Compound 1-1]
visibility of stained proteins after gel electrophoresis (FIG. 1) [3]: discernible with naked eyes | λabs (water) [1]: 675 nm | λfl (water) [2]: 695 nm

C=CS(=O)(=O)CCNC(=O)CCCCCN1/C(=C/C=C/C=C/C=C/C2=[N+](CC)c3ccc4c(S(=O)(=O)[O-])cc(S(=O)(=O)O)cc4c3C2(C)C)C(C)(C)c2c1ccc1c(S(=O)(=O)O)cc(S(=O)(=O)O)cc21 [Compound 1-2]
visibility of stained proteins after gel electrophoresis (FIG. 1) [3]: discernible with naked eyes | λabs (water) [1]: 777 nm | λfl (water) [2]: 803 nm

C=CS(=O)(=O)CCNC(=O)CCCCCN1/C(=C/C=C/C2=[N+](CC)c3ccc4c(S(=O)(=O)[O-])cc(S(=O)(=O)O)cc4c3C2(C)C)C(C)(C)c2c1ccc1c(S(=O)(=O)O)cc(S(=O)(=O)O)cc21 [Compound 1-3]
λabs (water) [1]: 579 nm | λfl (water) [2]: 594 nm

C=CS(=O)(=O)CCNC(=O)CCCCCN1/C(=C/C=C/C=C/C2=[N+](CC)c3ccc4ccccc4c3C2(C)C)C(C)(C)c2c1ccc1ccccc21 [Compound 1-4]
λabs (methanol) [1]: 680 nm | λfl (methanol) [2]: 710 nm

C=CS(=O)(=O)CCNC(=O)CCCCCCCN1/C(=C/C=C/C=C/C2=[N+](CC)c3ccc4c(S(=O)(=O)O)cc(S(=O)(=O)[O-])cc4c3C2(C)C)C(C)(C)c2c1ccc1c(S(=O)(=O)O)cc(S(=O)(=O)O)cc21 [Compound 1-5]
λabs (water) [1]: 675 nm | λfl (water) [2]: 704 nm

CC[N+]1=C(/C=C/C=C/C=C2/N(CCCCCC(=O)O)c3ccc4c(S(=O)(=O)O)cc(S(=O)(=O)O)cc4c3C2(C)C)C(C)(C)c2c1ccc1c(S(=O)(=O)[O-])cc(S(=O)(=O)O)cc21 [Compound 10-1]
λabs (water) [1]: 675 nm | λfl (water) [2]: 695 nm

CC[N+]1=C(/C=C/C=C/C=C/C=C2/N(CCCCCC(=O)O)c3ccc4c(S(=O)(=O)O)cc(S(=O)(=O)O)cc4c3C2(C)C)C(C)(C)c2c1ccc1c(S(=O)(=O)[O-])cc(S(=O)(=O)O)cc21 [Compound 10-3]
λabs (water) [1]: 777 nm | λfl (water) [2]: 803 nm

CC[N+]1=C(/C=C/C=C/C=C2/N(CCCCCC(=O)O)c3ccc4ccccc4c3C2(C)C)C(C)(C)c2c1ccc1ccccc21 [Compound 10-4]
λabs (methanol) [1]: 697 nm | λfl (methanol) [2]: 713 nm

CC[N+]1=C(/C=C/C=C/C=C2/N(CCCCCCCC(=O)O)c3ccc4c(S(=O)(=O)O)cc(S(=O)(=O)O)cc4c3C2(C)C)C(C)(C)c2c1ccc1c(S(=O)(=O)O)cc(S(=O)(=O)[O-])cc21 [Compound 10-5]
λabs (water) [1]: 675 nm | λfl (water) [2]: 704 nm
